Reference: PubChem BioAssay AID1259407 (Chemical Carcinogenesis Research Information System (CCRIS), 2018)
Activity calls are given as the source filed them. How the calls were made is not given here.

System: CCRIS mutagenicity, Ames/micronucleus/aberration tests
Test: CCRIS mutagenicity studies
[1] = Test System: AMES SALMONELLA TYPHIMURIUM, Strain/Indicator: TA98, Metabolic Activation: NONE, Method: PREINCUBATION
[2] = Test System: AMES SALMONELLA TYPHIMURIUM, Strain/Indicator: TA98, Metabolic Activation: NONE, Method: STANDARD PLATE
[3] = Test System: AMES SALMONELLA TYPHIMURIUM, Strain/Indicator: TA98, Metabolic Activation: RAT, LIVER, S-9, AROCLOR 1254, Method: PREINCUBATION
[4] = Test System: AMES SALMONELLA TYPHIMURIUM, Strain/Indicator: TA98, Metabolic Activation: RAT, LIVER, S-9, AROCLOR 1254, Method: STANDARD PLATE
[5] = Test System: AMES SALMONELLA TYPHIMURIUM, Strain/Indicator: TA100, Metabolic Activation: NONE, Method: PREINCUBATION
[6] = Test System: AMES SALMONELLA TYPHIMURIUM, Strain/Indicator: TA100, Metabolic Activation: NONE, Method: STANDARD PLATE
[7] = Test System: AMES SALMONELLA TYPHIMURIUM, Strain/Indicator: TA100, Metabolic Activation: RAT, LIVER, S-9, AROCLOR 1254, Method: PREINCUBATION
[8] = Test System: AMES SALMONELLA TYPHIMURIUM, Strain/Indicator: TA100, Metabolic Activation: RAT, LIVER, S-9, AROCLOR 1254, Method: STANDARD PLATE
[9] = Test System: AMES SALMONELLA TYPHIMURIUM, Strain/Indicator: TA1535, Metabolic Activation: NONE, Method: PREINCUBATION
[10] = Test System: AMES SALMONELLA TYPHIMURIUM, Strain/Indicator: TA1535, Metabolic Activation: RAT, LIVER, S-9, AROCLOR 1254, Method: PREINCUBATION
[11] = Test System: AMES SALMONELLA TYPHIMURIUM, Strain/Indicator: TA1537, Metabolic Activation: NONE, Method: PREINCUBATION
[12] = Test System: AMES SALMONELLA TYPHIMURIUM, Strain/Indicator: TA1537, Metabolic Activation: RAT, LIVER, S-9, AROCLOR 1254, Method: PREINCUBATION

For `C[C@]12CC[C@@H]3c4ccc(O)cc4CC[C@H]3[C@@]13CC[C@]2(O)[C@H](O)C3`, the mutagenic call (End Point: IN VITRO CHROMOSOMAL ABERRATIONS, Test System: HUMAN PERIPHERAL LYMPHOCYTES, Metabolic Activation: NONE) was “inactive; negative”, the mutagenic call (End Point: IN VITRO CHROMOSOMAL ABERRATIONS, Test System: HUMAN PERIPHERAL LYMPHOCYTES, Metabolic Activation: RAT, LIVER, S-9, AROCLOR 1254) was “inactive; negative” and the mutagenic call [1] was “inactive; negative”. For the same compound, the mutagenic call [2] was “inactive; negative”, the mutagenic call [3] was “inactive; negative” and the mutagenic call [4] was “inactive; negative”. For the same compound, the mutagenic call [5] was “inactive; negative”, the mutagenic call [6] was “inactive; negative” and the mutagenic call [7] was “inactive; negative”. The mutagenic call [8] was “inactive; negative”, the mutagenic call [9] was “inactive; negative” and the mutagenic call (Test System: AMES SALMONELLA TYPHIMURIUM, Strain/Indicator: TA1535, Metabolic Activation: NONE, Method: STANDARD PLATE) was “inactive; negative”. For the same compound, the mutagenic call [10] was “inactive; negative”, the mutagenic call (Test System: AMES SALMONELLA TYPHIMURIUM, Strain/Indicator: TA1535, Metabolic Activation: RAT, LIVER, S-9, AROCLOR 1254, Method: STANDARD PLATE) was “inactive; negative” and the mutagenic call [11] was “inactive; negative”. The mutagenic call (Test System: AMES SALMONELLA TYPHIMURIUM, Strain/Indicator: TA1537, Metabolic Activation: NONE, Method: STANDARD PLATE) was “inactive; negative”, the mutagenic call [12] was “inactive; negative” and the mutagenic call (Test System: AMES SALMONELLA TYPHIMURIUM, Strain/Indicator: TA1537, Metabolic Activation: RAT, LIVER, S-9, AROCLOR 1254, Method: STANDARD PLATE) was “inactive; negative”. For the same compound, the mutagenic call (Test System: AMES SALMONELLA TYPHIMURIUM, Strain/Indicator: TA1538, Metabolic Activation: NONE, Method: PREINCUBATION) was “inactive; negative”, the mutagenic call (Test System: AMES SALMONELLA TYPHIMURIUM, Strain/Indicator: TA1538, Metabolic Activation: NONE, Method: STANDARD PLATE) was “inactive; negative” and the mutagenic call (Test System: AMES SALMONELLA TYPHIMURIUM, Strain/Indicator: TA1538, Metabolic Activation: RAT, LIVER, S-9, AROCLOR 1254, Method: PREINCUBATION) was “inactive; negative”. The mutagenic call (Test System: AMES SALMONELLA TYPHIMURIUM, Strain/Indicator: TA1538, Metabolic Activation: RAT, LIVER, S-9, AROCLOR 1254, Method: STANDARD PLATE) was “inactive; negative”, the mutagenic call (Test System: CHINESE HAMSTER V-79, Strain/Indicator: V-79 (HGPRT)/6-THIOGUANINE, Metabolic Activation: NONE) was “inactive; negative” and the mutagenic call (Test System: CHINESE HAMSTER V-79, Strain/Indicator: V-79 (HGPRT)/6-THIOGUANINE, Metabolic Activation: RAT, LIVER, S-9, AROCLOR 1254) was “inactive; negative”.

For `C(=C/c1ccccc1)/c1ccccc1`, the mutagenic call (Test System: AMES SALMONELLA TYPHIMURIUM, Strain/Indicator: TA98, Metabolic Activation: HAMSTER, LIVER, S-9, AROCLOR 1254, Method: PREINCUBATION) was “inactive; negative”, the mutagenic call [1] was “inactive; negative” and the mutagenic call [3] was “inactive; negative”. For the same compound, the mutagenic call (Test System: AMES SALMONELLA TYPHIMURIUM, Strain/Indicator: TA100, Metabolic Activation: HAMSTER, LIVER, S-9, AROCLOR 1254, Method: PREINCUBATION) was “inactive; negative”, the mutagenic call [5] was “inactive; negative” and the mutagenic call [7] was “inactive; negative”. The mutagenic call (Test System: AMES SALMONELLA TYPHIMURIUM, Strain/Indicator: TA1535, Metabolic Activation: HAMSTER, LIVER, S-9, AROCLOR 1254, Method: PREINCUBATION) was “inactive; negative”, the mutagenic call [9] was “inactive; negative” and the mutagenic call [10] was “inactive; negative”. For the same compound, the mutagenic call (Test System: AMES SALMONELLA TYPHIMURIUM, Strain/Indicator: TA1537, Metabolic Activation: HAMSTER, LIVER, S-9, AROCLOR 1254, Method: PREINCUBATION) was “inactive; negative”, the mutagenic call [11] was “inactive; negative” and the mutagenic call [12] was “inactive; negative”.

`Cc1cccc2c1C(C)c1ccccc1-2` (stereo unspecified) was tested, and the mutagenic call [4] was “active; positive” and the mutagenic call [8] was “active; positive”.

For `Cc1cc2ccccc2c2ccc3c(c12)[C@H](O)[C@@H](O)[C@H]1O[C@@H]31`, the mutagenic call [5] was “inactive; negative”.

For `CCOC(=O)c1[nH]c2ccccc2c1N=Cc1ccc(NC(C)=O)cc1`, the mutagenic call (Test System: AMES SALMONELLA TYPHIMURIUM, Strain/Indicator: TA97, Metabolic Activation: NONE, Method: STANDARD PLATE) was “active; positive”, the mutagenic call (Test System: AMES SALMONELLA TYPHIMURIUM, Strain/Indicator: TA97, Metabolic Activation: RAT, LIVER, S-9, AROCLOR 1254, Method: STANDARD PLATE) was “inactive; negative” and the mutagenic call [2] was “inactive; negative”. The mutagenic call [4] was “inactive; negative”, the mutagenic call [6] was “inactive; negative” and the mutagenic call [8] was “inactive; negative”. For the same compound, the mutagenic call (Test System: AMES SALMONELLA TYPHIMURIUM, Strain/Indicator: TA102, Metabolic Activation: NONE, Method: STANDARD PLATE) was “inactive; negative” and the mutagenic call (Test System: AMES SALMONELLA TYPHIMURIUM, Strain/Indicator: TA102, Metabolic Activation: RAT, LIVER, S-9, AROCLOR 1254, Method: STANDARD PLATE) was “inactive; negative”.

For `O=C(Cl)C(Cl)Cl`, the mutagenic call (Test System: AMES SALMONELLA TYPHIMURIUM, Strain/Indicator: TA98, Metabolic Activation: HAMSTER, LIVER, S-9, AROCLOR 1254 (30%), Method: PREINCUBATION) was “inactive; negative”, the mutagenic call [1] was “inactive; negative” and the mutagenic call (Test System: AMES SALMONELLA TYPHIMURIUM, Strain/Indicator: TA98, Metabolic Activation: RAT, LIVER, S-9, AROCLOR 1254 (30%), Method: PREINCUBATION) was “inactive; negative”. For the same compound, the mutagenic call (Test System: AMES SALMONELLA TYPHIMURIUM, Strain/Indicator: TA100, Metabolic Activation: HAMSTER, LIVER, S-9, AROCLOR 1254 (30%), Method: PREINCUBATION) was “inactive; negative”, the mutagenic call (Test System: AMES SALMONELLA TYPHIMURIUM, Strain/Indicator: TA100, Metabolic Activation: NONE, Method: BAG VAPORIZATION) was “active; positive” and the mutagenic call [5] was “active; positive”. For the same compound, the mutagenic call (Test System: AMES SALMONELLA TYPHIMURIUM, Strain/Indicator: TA100, Metabolic Activation: RAT, LIVER, S-9, AROCLOR 1254 (30%), Method: PREINCUBATION) was “inactive; negative” and the mutagenic call (Test System: AMES SALMONELLA TYPHIMURIUM, Strain/Indicator: TA100, Metabolic Activation: RAT, LIVER, S-9, AROCLOR 1254, Method: BAG VAPORIZATION) was “inactive; negative”.

For `CC(C)NCC(O)c1ccc2ccccc2c1` (stereo unspecified), the mutagenic call (Test System: AMES SALMONELLA TYPHIMURIUM, Strain/Indicator: TA98, Metabolic Activation: NONE) was “inactive; negative”, the mutagenic call (Test System: AMES SALMONELLA TYPHIMURIUM, Strain/Indicator: TA98, Metabolic Activation: RAT, LIVER, S-9, AROCLOR 1254) was “inactive; negative” and the mutagenic call (Test System: AMES SALMONELLA TYPHIMURIUM, Strain/Indicator: TA100, Metabolic Activation: NONE) was “inactive; negative”. The mutagenic call (Test System: AMES SALMONELLA TYPHIMURIUM, Strain/Indicator: TA100, Metabolic Activation: RAT, LIVER, S-9, AROCLOR 1254) was “inactive; negative”, the mutagenic call (Test System: AMES SALMONELLA TYPHIMURIUM, Strain/Indicator: TA1535, Metabolic Activation: NONE) was “inactive; negative” and the mutagenic call (Test System: AMES SALMONELLA TYPHIMURIUM, Strain/Indicator: TA1535, Metabolic Activation: RAT, LIVER, S-9, AROCLOR 1254) was “inactive; negative”. For the same compound, the mutagenic call (Test System: AMES SALMONELLA TYPHIMURIUM, Strain/Indicator: TA1537, Metabolic Activation: NONE) was “inactive; negative” and the mutagenic call (Test System: AMES SALMONELLA TYPHIMURIUM, Strain/Indicator: TA1537, Metabolic Activation: RAT, LIVER, S-9, AROCLOR 1254) was “inactive; negative”.

`N[C@@H](CSc1ccc([N+](=O)[O-])cc1[N+](=O)[O-])C(=O)O` was tested, and the mutagenic call (Test System: AMES SALMONELLA TYPHIMURIUM, Strain/Indicator: TA100(NR), Metabolic Activation: NONE, Method: PREINCUBATION) was “active; positive”, the mutagenic call (Test System: AMES SALMONELLA TYPHIMURIUM, Strain/Indicator: TA100/GSH-, Metabolic Activation: NONE, Method: PREINCUBATION) was “active; positive” and the mutagenic call [5] was “active; positive”.
